Results reported in article PMC9774334 (ACS Omega, 2022).

Columns and labels:
TmaFuc = biological target: T1, TmaFuc (Thermotoga maritima, UniProt Q9WYE2); assay: p-nitrophenol release at […] nm; format: biochemical; conditions: 2 mM substrate
T1 sequence (Q9WYE2 1-449): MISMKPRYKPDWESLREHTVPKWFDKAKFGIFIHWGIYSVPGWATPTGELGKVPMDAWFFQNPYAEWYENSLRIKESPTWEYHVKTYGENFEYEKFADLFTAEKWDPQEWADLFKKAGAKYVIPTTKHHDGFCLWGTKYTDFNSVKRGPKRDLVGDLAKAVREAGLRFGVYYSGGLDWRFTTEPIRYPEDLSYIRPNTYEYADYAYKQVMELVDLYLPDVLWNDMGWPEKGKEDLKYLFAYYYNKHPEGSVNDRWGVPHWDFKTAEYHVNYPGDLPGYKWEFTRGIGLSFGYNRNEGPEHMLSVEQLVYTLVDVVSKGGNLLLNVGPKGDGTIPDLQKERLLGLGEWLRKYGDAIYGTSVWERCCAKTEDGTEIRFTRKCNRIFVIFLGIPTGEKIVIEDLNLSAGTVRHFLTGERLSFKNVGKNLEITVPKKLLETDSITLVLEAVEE

ClAgl29B = biological target: T2, ClAgl29B (Cecembia lonarensis, UniProt K1KV82); assay: X-ray crystal structure, […] Å, soaking; format: binding; conditions: active site; crystal pH 3.5, 30 mM L-glucose soak
T2 sequence (K1KV82 21-586): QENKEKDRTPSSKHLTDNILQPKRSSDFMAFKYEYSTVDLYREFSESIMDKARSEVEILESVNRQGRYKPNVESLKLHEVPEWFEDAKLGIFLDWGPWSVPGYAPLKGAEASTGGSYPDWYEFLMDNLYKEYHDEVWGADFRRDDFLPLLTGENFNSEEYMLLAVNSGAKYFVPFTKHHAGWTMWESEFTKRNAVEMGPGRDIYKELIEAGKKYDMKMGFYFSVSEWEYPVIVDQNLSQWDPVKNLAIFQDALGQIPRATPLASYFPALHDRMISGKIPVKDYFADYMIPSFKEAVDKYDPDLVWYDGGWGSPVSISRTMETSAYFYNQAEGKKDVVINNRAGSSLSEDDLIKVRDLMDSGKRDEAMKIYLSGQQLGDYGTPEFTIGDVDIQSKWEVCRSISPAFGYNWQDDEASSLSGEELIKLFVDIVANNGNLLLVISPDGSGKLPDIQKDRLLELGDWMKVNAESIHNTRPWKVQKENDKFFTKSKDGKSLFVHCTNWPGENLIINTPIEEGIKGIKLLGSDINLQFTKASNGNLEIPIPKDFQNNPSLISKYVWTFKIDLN

p-nitrophenol release at 400 nm (TmaFuc)	Structure (SMILES)	X-ray crystal structure, 1.7 Å, soaking (ClAgl29B)
TmaFuc hydrolyzed PNP α-L-Fuc	C[C@@H]1O[C@@H](Oc2ccc([N+](=O)[O-])cc2)[C@@H](O)[C@H](O)[C@@H]1O [PNP α-L-Fuc]	
	OC[C@@H]1O[C@H](O)[C@@H](O)[C@H](O)[C@H]1O [β-L-glucose]	The ClAgl29B complex obtained with β-L-glucose by a soaking experiment
